Measurements from PubChem BioAssay (NCI).
Where “and” joins values, the source holds several entries; their conditions need not be identical. Identical values can stand only once.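 Method: 48-hour compound exposure of cells in 96-well plates, five concentrations, linear interpolation of endpoints. GI50 = concentration required for 50% inhibition of growth. The concentration for full growth arrest is given as TGI.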

Assays:
Assay in all cases: DTP human tumour cell line panel, 48 h
[1] = system: 786-0 renal
[2] = system: ACHN renal
[3] = system: BT-549 breast
[4] = system: EKVX NSCLC
[5] = system: HL-60(TB) leukemia
[6] = system: NCI-H522 lung
[7] = system: RPMI-8226 leukemia
[8] = system: SF-268 CNS
[9] = system: SW-620 colon
[10] = system: UACC-257 melanoma

| SMILES | GI50 [1] | TGI [1] | GI50 [2] | TGI [2] | GI50 [3] | TGI [3] | GI50 [4] | TGI [4] | GI50 [5] | TGI [5] | GI50 [6] | TGI [6] | GI50 [7] | TGI [7] | GI50 [8] | TGI [8] | GI50 [9] | TGI [9] | GI50 [10] | TGI [10] |
| --- | --- | --- | --- | --- | --- | --- | --- | --- | --- | --- | --- | --- | --- | --- | --- | --- | --- | --- | --- | --- |
| COC(=O)c1c2c(c(C)[n+]([O-])c1C)C(=O)C=C(NCc1ccc(OC)cc1)C2=O | 5.48 µM | 23.3 µM | 1.98 µM | 5.23 µM | 4.29 µM | 15.8 µM | 1.92 µM | 5.24 µM | 0.794 µM | 2.21 µM | 1.82 µM | 5.16 µM | 2.03 µM | 9.26 µM | 2.24 µM | 8.27 µM | 1.08 µM | 4.08 µM | 0.758 µM | 2.08 µM |
| C=CCN1C=CC(=O)[C@H](O[Si](C)(C)C(C)(C)C)[C@@H]1/C=C/c1ccccc1 | 15.4 µM | 29.4 µM | 15.5 µM | 29.2 µM | 16 µM | 35 µM | 14 µM | 40.7 µM | 3.36 µM | 20.2 µM | 13 µM | 28.3 µM | 13.6 µM | 45.2 µM | 15.1 µM | 30.9 µM | 14.5 µM | 29.3 µM | 17.9 µM | 37.2 µM |
| COc1ccc(-c2nc3ncccn3c2/C=C/C(=O)c2cc(OC)c(OC)c(OC)c2)cc1 | 1.84 µM | 5.51 µM | 1.57 µM | 3.17 µM | 1.45 µM | 5.92 µM | 1.61 µM | 6.06 µM | 2.52 µM | > 100 µM | 1.66 µM | 3.89 µM | 2.21 µM | > 100 µM | 2.36 µM | 9.62 µM | 1.75 µM | 3.94 µM | 1.88 µM | 4.81 µM |
| CC1(C)CC(n2cnc(-c3ccc(F)cc3)c2-c2ccnc(N)n2)CC(C)(C)N1 | > 25 µM | > 25 µM | 10.3 µM | > 25 µM | > 25 µM | > 25 µM | > 25 µM | > 25 µM | > 25 µM | > 25 µM | 17.6 µM | > 25 µM | > 25 µM | > 25 µM | 18.7 µM | > 25 µM | 12.1 µM | > 25 µM | > 25 µM | > 25 µM |
| CCN=c1cc2sc3cc(NCC)c(C)cc3nc-2cc1C | 3.1 µM | 15.5 µM | 1.58 µM | 10.6 µM | 2.87 µM | 19.9 µM | 0.632 µM | 4.53 µM | 1.66 µM | 8.48 µM | 0.419 µM | 2.61 µM | 0.233 µM | 3.45 µM | 2.47 µM | 14.4 µM | 0.694 µM | 12.8 µM | 1.66 µM | 6.55 µM |
| CCCCCCCCCCC(O)C1CCC(C(O)CCC(O)C2CCC(CCCCCCC[C@H](O)CC3=C[C@@H](C)OC3=O)O2)O1 (some centres undefined) |  | 53.9 µM | > 100 µM | > 100 µM |  | 2.26 µM | 4.16 µM | > 100 µM |  | 13.4 µM |  | > 100 µM | 6.36 µM | > 100 µM |  | > 100 µM | 9.3 µM | > 100 µM | 0.461 µM | > 100 µM |
| c1ccc2c(c1)-c1ccccc1C2N1CC2CCC(CC2)C1 |  | > 100 µM |  | 53.4 µM |  | 47.9 µM |  | 51 µM |  | 11.2 µM |  | 28.5 µM |  | 46 µM |  | 37.8 µM |  | 49.1 µM |  | 47.1 µM |
| COc1cc2c(Oc3ccc4[nH]c(C)cc4c3F)ccnc2cc1OCC1(N)CC1 | 1.02 µM | 3.46 µM | 2.05 µM | 12.5 µM | 1.3 µM | 3.96 µM | 2.79 µM | > 100 µM | 0.382 µM | 1.95 µM | 1.27 µM | 3.46 µM | 2.1 µM | 5.95 µM | 1.39 µM | 12.9 µM | 0.757 µM | 11.8 µM | 1.67 µM | 3.63 µM |
| COc1cc2c(cc1OCCCCCCN1CCN(c3ncnc4ccccc34)CC1)N=CC1CCCN1C2=O (centres undefined) | 0.141 µM | 0.649 µM | 0.345 µM | 12.3 µM | 0.0422 µM | 0.227 µM | 0.354 µM | 2.01 µM | 0.0782 µM |  | < 0.0145 µM | 0.135 µM | < 0.0207 µM | 0.103 µM | 0.201 µM | 3.48 µM | 0.0935 µM | 0.566 µM | 0.237 µM | 14.1 µM |
| C=C[C@H]1CCC/C=C/[C@@H]2C[C@H](O)C[C@H]2[C@H](O)/C=C/C(=O)O1 | 0.0184 µM | 0.0377 µM | 0.0404 µM | > 100 µM | 0.05 µM | > 100 µM | 0.0395 µM | > 100 µM | 0.0347 µM | 0.234 µM | 0.0673 µM | 0.356 µM | 0.045 µM | > 100 µM | 0.038 µM | > 100 µM | 0.0275 µM | 0.0949 µM | 0.0864 µM | > 100 µM |
| Cc1cc(I)cc(CN(C)CCN2CCCC2)c1O | 21.1 µM | 59.8 µM | 25.7 µM | > 84.4 µM | 18.7 µM | 48.8 µM | 41.2 µM | > 100 µM | 10.9 µM | 34.2 µM | 19.9 µM | 43.4 µM | 19.2 µM | 46.2 µM | 32.4 µM | > 88.2 µM | 23.2 µM | 60 µM | 32.2 µM | 51.4 µM |
| O=P([O-])(O)OP(=O)([O-])O.[NH-][C@@H]1CCCC[C@H]1[NH-].[Pt+4] | 20.6 µM and 7.98 µM | > 100 µM and 76.6 µM | 4.78 µM and 5.63 µM | > 100 µM and 58.2 µM | > 100 µM and 30.5 µM | > 100 µM | > 100 µM | > 100 µM | > 70.2 µM | > 100 µM | 14.6 µM | > 100 µM | 13.7 µM and 3.16 µM | > 100 µM | 60.6 µM and 6.27 µM | > 100 µM | 4.85 µM and 0.659 µM | > 100 µM | 70.6 µM and 7.93 µM | > 100 µM |
| COc1c(Cl)c2c(c(OC)c1OC)-c1ccc(SC)c(=O)cc1[C@@H](NC(=O)OCC(F)(F)F)CC2 | < 0.01 µM | > 30.4 µM | < 0.01 µM | > 100 µM | < 0.01 µM | 0.956 µM | < 0.01 µM | > 100 µM | < 0.01 µM | < 0.01 µM | < 0.01 µM | 3.46 µM | < 0.01 µM | 8.21 µM | < 0.0105 µM | > 90.5 µM | < 0.01 µM | > 100 µM | 9.61 µM | > 100 µM |
| COc1ccc2c(CN3CCC[C@H]3C(=O)O)cc3cc4c(cc3c2c1)OCO4 | 16.2 µM | > 100 µM | 5.97 µM | > 100 µM | 15.7 µM | 43.3 µM | 20.2 µM | 65.7 µM | 22.9 µM | 67.8 µM | 11.1 µM | 95.2 µM | 9.87 µM | 39.3 µM | 9.87 µM | 67.1 µM | 5.15 µM | 70.4 µM | 12.6 µM | 45.8 µM |
| CCOc1ccc(Nc2nc(-c3ccc4c(c3)NC(=O)CO4)cs2)cc1 | 14.3 µM | > 100 µM | 6.96 µM | > 100 µM | 2.56 µM | 20.7 µM | 6.59 µM | > 100 µM | 2.14 µM | 8.17 µM | 4.27 µM | 37.1 µM | 14.9 µM | > 100 µM | 36.7 µM | > 100 µM | 19.6 µM | > 100 µM | 3.37 µM | 11 µM |
| C=C1C(=O)[C@@]23CC1C(O)[C@@H](OC(C)=O)[C@@H]2C1(C)C(OC(C)=O)C[C@@H](OC(C)=O)C(C)(C)[C@@H]1C[C@H]3OC(C)=O (some centres undefined) | 1.81 µg/mL | > 10 µM and 3.97 µg/mL | 4.26 µg/mL | > 10 µM and 16.6 µg/mL | 1.87 µg/mL | 3.04 µM and 3.31 µg/mL | > 10 µM and 16.8 µg/mL | > 10 µM and 35.6 µg/mL | 1.89 µM and 0.529 µg/mL | 3.67 µM and 3 µg/mL | 1.31 µM and 0.288 µg/mL | 2.64 µM and 1.44 µg/mL | 1.55 µM and 0.543 µg/mL | 4.28 µM and 3.5 µg/mL | > 10 µM and 6.82 µg/mL | > 10 µM and 28.3 µg/mL | 1.7 µM and 1.85 µg/mL | 3.33 µM and 4.57 µg/mL | 3.55 µM and 2.25 µg/mL | > 10 µM and 5.06 µg/mL |
| C=C(C)CN(CC#N)CC(=C)C |  | > 100 µM |  | > 100 µM |  | > 100 µM |  | > 100 µM |  | > 100 µM |  | > 100 µM |  | > 100 µM |  | > 100 µM |  | > 100 µM |  | > 100 µM |
| Cc1ccc(C(=O)C(Cl)C(Cl)c2ccc(C)cc2)cc1 (centres undefined) |  | 4.61 µM |  | 3.13 µM |  | 9.2 µM |  | 19.5 µM |  | 10 µM |  | 10.7 µM |  | 7.25 µM |  | 21.2 µM |  | 6.32 µM |  | 4.48 µM |
| Cc1cc(-c2nnc(N)nc2-c2ccc(F)cc2)cc(Cl)n1 | > 100 µM | > 100 µM | 73.3 µM | > 100 µM | 58.1 µM | > 100 µM | 59.9 µM | > 100 µM | 33.6 µM | > 100 µM | 55.9 µM | > 100 µM | 37.3 µM | > 100 µM | > 100 µM | > 100 µM | > 100 µM | > 100 µM | 78.9 µM | > 100 µM |
| O=CN1N=C(c2ccc(Cl)cc2)CC1c1cccc(Nc2ccnc3cc(Cl)ccc23)c1 (centres undefined) | 2.96 µM | 14.5 µM | 2.64 µM | > 100 µM | 1.78 µM | 15.4 µM | 1.59 µM | > 100 µM | 1.27 µM | 4.49 µM | 1.12 µM | 11.9 µM | 0.611 µM | 4.19 µM | 2.73 µM | > 100 µM | 1.61 µM | 24.2 µM | 1.47 µM | 20.9 µM |
| O=C1c2cc([N+](=O)[O-])ccc2-c2cccc(F)c21 |  | > 100 µM |  | > 100 µM |  | > 100 µM |  | 51.5 µM |  | > 100 µM |  | > 100 µM |  | > 100 µM |  | > 100 µM |  | > 100 µM |  | > 100 µM |
